The target in data set [1] is recombinant 17bHSD13 (N2-K300) (Homo sapiens (Human), UniProt Q7Z5P4). Put plainly: In Vitro 17bHSD13 Enzyme Assay. The class given is biochemical. Conditions: 80 nM 17bHSD13, 0.5 mM NAD, 20 μM Estradiol, 2.5 h; estradiol to estrone by LC-MS/MS. Summed up: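 Human 17bHSD13 (N2-K300, 80 nM) with 0.5 mM NAD, 20 μM estradiol and varied compound in 50 mM Tris-Cl pH 7.4, 5 mM EDTA, 0.01% DDM. Estrone/(estrone+estradiol) ratio read by LC-MS/MS (APCI, positive MRM). Inhibition normalised to DMSO and a known-inhibitor control; IC50 from curve fit.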
Sequence of recombinant 17bHSD13 (N2-K300) (Q7Z5P4 2-300): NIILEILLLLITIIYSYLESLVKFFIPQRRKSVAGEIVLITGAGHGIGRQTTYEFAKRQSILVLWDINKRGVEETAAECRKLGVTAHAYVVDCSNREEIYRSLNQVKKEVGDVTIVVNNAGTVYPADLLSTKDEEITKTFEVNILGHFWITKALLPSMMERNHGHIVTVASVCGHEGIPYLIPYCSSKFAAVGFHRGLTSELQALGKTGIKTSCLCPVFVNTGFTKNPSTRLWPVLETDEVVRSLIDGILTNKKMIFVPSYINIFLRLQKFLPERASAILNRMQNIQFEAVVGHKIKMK

Data set [2] addresses recombinant 17bHSD4 (M1-N311) (Homo sapiens (Human), UniProt P51659). In words: In Vitro 17bHSD4 Enzyme Assay. The class given is biochemical. Conditions: 40 nM 17bHSD4, 0.125 mM NAD, 15 μM Estradiol, 1.5 h; NADH fluorescence; read-out: 17HSD17b4 Enzyme assay IC50.
For another data set, the system named is human hepatocytes. Put plainly: Assay A: Metabolic Stability in Human Hepatocytes. The class given is in vitro ADME. Conditions: cryopreserved human hepatocytes, 10^6 viable cells/mL, 1 μM compound, 37° C. Summed up: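 Cryopreserved hepatocytes (10^6 viable cells/mL) at 37° C with 1 μM test compound, sampled 0.5–120 min and quenched in MeCN. Parent measured by LC-MS/MS; CLint (μL/min/10^6 cells) from the slope of ln(parent concentration) vs time.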

The values below come from US20250011311A1, “AMIDO HETEROAROMATIC COMPOUNDS” (AstraZeneca AB, priority 2022, published 2025).

Sequence of recombinant 17bHSD4 (M1-N311) (P51659 1-311): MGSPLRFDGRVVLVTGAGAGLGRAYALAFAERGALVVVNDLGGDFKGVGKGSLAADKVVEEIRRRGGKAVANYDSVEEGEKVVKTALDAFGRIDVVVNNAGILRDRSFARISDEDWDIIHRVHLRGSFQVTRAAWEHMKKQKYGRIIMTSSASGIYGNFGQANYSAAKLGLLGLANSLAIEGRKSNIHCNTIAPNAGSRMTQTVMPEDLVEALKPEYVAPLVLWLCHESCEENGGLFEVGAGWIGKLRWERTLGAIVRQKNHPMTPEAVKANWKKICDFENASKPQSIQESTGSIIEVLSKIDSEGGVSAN

As for `O=C(c1noc(-c2cc(F)c(F)c(O)c2F)n1)N1CCO[C@@H]2CCC[C@H]21` [Example 114, ((4aR,7aR)-Hexahydrocyclopenta[b][1,4]oxazin-4(4aH)-yl)(5-(2,4,5-trifluoro-3-hydroxyphenyl)-1,2,4-oxadiazol-3-yl)methanone], the half-inhibitory concentration (IC50) (commonly the concentration needed to halve the response being measured) was 46 nM in data set [1] and more than 50 µM in data set [2]. Besides, in the data set on human hepatocytes, the “Assay A: Human Heps Met Clint GMean CLint (μl/min/1E6)” value was 6.4 μl/min/1E6.
As to `CC[C@H]1CN(C(=O)c2noc(-c3cc(F)c(F)c(O)c3F)n2)C[C@@H](C)O1` (racemic) [Example 121, rac-((2R,6S)-2-Ethyl-6-methylmorpholino)(5-(2,4,5-trifluoro-3-hydroxyphenyl)-1,2,4-oxadiazol-3-yl)methanone], the values for the 50% inhibitory concentration (IC50) in data set [1] and in data set [2] were 130 nM and more than 50 µM, respectively. The “Assay A: Human Heps Met Clint GMean CLint (μl/min/1E6)” value in the data set on human hepatocytes turned out to be 6.8 μl/min/1E6.
On the same counts, the results for `C[C@@H]1CC[C@H](C)N1C(=O)c1noc(-c2cc(F)c(F)c(O)c2F)n1` [Example 38, ((2R,5S)-2,5-Dimethylpyrrolidin-1-yl)(5-(2,4,5-trifluoro-3-hydroxyphenyl)-1,2,4-oxadiazol-3-yl)methanone] are 207 nM, 24 µM and 2.1 μl/min/1E6.
For `O=C(c1noc(-c2cc(F)c(F)c(O)c2F)n1)N1CC(Oc2ccccc2)C1` [Example 2, (3-Phenoxyazetidin-1-yl)(5-(2,4,5-trifluoro-3-hydroxyphenyl)-1,2,4-oxadiazol-3-yl)methanone] the same measures were 75 nM, 6.7 µM and 14.7 μl/min/1E6.
Take `CCCC1CCN(C(=O)c2noc(-c3cc(F)c(F)c(O)c3F)n2)C1` (stereo not drawn) [Example 76, (3-Propylpyrrolidin-1-yl)(5-(2,4,5-trifluoro-3-hydroxyphenyl)-1,2,4-oxadiazol-3-yl)methanone]: the results for the IC50 in data set [1] and in data set [2] were 128 nM and 44.8 µM, respectively. The “Assay A: Human Heps Met Clint GMean CLint (μl/min/1E6)” value in the data set with human hepatocytes is given as 18.2 μl/min/1E6.
For the compound `O=C(c1noc(-c2cc(F)c(F)c(O)c2F)n1)N1CCN(CCCOc2ccc(F)cc2)CC1` [Example 57, (4-(3-(4-Fluorophenoxy)propyl)piperazin-1-yl)(5-(2,4,5-trifluoro-3-hydroxyphenyl)-1,2,4-oxadiazol-3-yl)methanone], the 50% inhibitory concentration (IC50) in data set [1] worked out at 88 nM; in data set [2], 32.3 µM. For the same compound, the “Assay A: Human Heps Met Clint GMean CLint (μl/min/1E6)” value in the data set with human hepatocytes amounted to 9.5 μl/min/1E6.
Consider `CC1CN(C(=O)c2noc(-c3cc(F)c(F)c(O)c3F)n2)CC2(CCC2)O1` (racemic) [Example 123, (6-Methyl-5-oxa-8-azaspiro[3.5]nonan-8-yl)(5-(2,4,5-trifluoro-3-hydroxyphenyl)-1,2,4-oxadiazol-3-yl)methanone], for which the figures for the IC50 in data set [1] and in data set [2] were 77 nM and 32 µM, respectively. For the same compound, in the data set with human hepatocytes, the “Assay A: Human Heps Met Clint GMean CLint (μl/min/1E6)” value is 8.3 μl/min/1E6.
On the same counts, the results for `O=C(c1noc(-c2cc(F)c(F)c(O)c2F)n1)N1CCO[C@@H]2CCC[C@@H]21` [Example 113, ((4aS,7aR)-Hexahydrocyclopenta[b][1,4]oxazin-4(4aH)-yl)(5-(2,4,5-trifluoro-3-hydroxyphenyl)-1,2,4-oxadiazol-3-yl)methanone] are 211 nM, 45.3 µM and 7.3 μl/min/1E6.
